Laboratory results as given in US5468757A, “6-azaindole thromboxane synthase inhibitors” (Eli Lilly and Company, priority 1994, dated 1995).

How the values were obtained:
[1] = test system: cyclooxygenase and prostacyclin synthase; experiment: Serum 6-keto-PGF1a by radioimmunoassay in whole human blood (specificity of TSI); assay type: cell-based; details: for Serum 6-keto-PGF1a: whole human blood, mean ± SE, n = 3, vehicle 1.6 ± 0.2
Protocol: (§1) The test compound - 6-azaindole-1-hexanoic acid (the compound of Example 1, Part D) was dissolved in dimethylsulfoxide at varying concentrations. The compound solutions and dimethylsulfoxide alone (vehicle) were incubated with fresh whole human blood that had been anticoagulated with 0.38% trisodium citrate, for 30 minutes at 37° C. After 30 minutes, 0.025 ml of 0.5 M calcium chloride solution was added to each 1 ml of blood and further incubated for one hour at 37° C. Serum was prepared by centrifugation of the blood at 2000 x g for 15 minutes in a Beckman table top centrifuge. Serum TXB2 and 6-keto-PGF1a, the stable metabolites of and markers of synthesis of TXA2 and prostacyclin respectively, were measured by radioimmunoassay by commonly used test methods (see, Refs.,1 & 2 below). Results from the radioimmunoassay of TXB2 are shown in Table 1 and indicate the dose-dependent potency of the compound of Example 1, Part D as a thromboxane synthase inhibitor.
Data determined from the radioimmunoassay of serum 6-keto-PGF1a (reflecting prostacyclin generation) allowed a determination of the specificity of 6-azaindole-1-hexanoic acid for the inhibition of thromboxane synthase versus cyclooxygenase and prostacyclin synthase as indicated by the serum levels of 6-keto-PGF1a. These values decrease in the presence of a nonspecific inhibitor (i.e., aspirin) but are unchanged or increased by specific TSI. The data in Table 2 documents the expected dose-dependent stimulatory effect of the compound of 6-azaindole-1-hexanoic acid on human serum 6-keto-PGF1a levels and confirm the specific TSI by 6-azaindole-1-hexanoic acid.

thromboxane synthase [2] = experiment: Oral activity: serum TXB2 in rats one hour after oral dosing; assay type: in vivo; details: blood one hour after dosing, mean ± SE, n = 3, dose 0: 340
Protocol: The oral activity of 6-azaindole-1-hexanoic acid was established by treating rats via the oral route with solutions of the compound and one hour later collecting blood. The blood was allowed to clot in glass tubes for 1 hour at 37° C. Serum was collected after sedimentation of the clot by centrifugation at 2000 x g for 15 minutes in a Beckman table top centrifuge. The levels of TXB2 were measured in the serum by radioimmunoassay. Decreased levels of TXB2 indicate the presence of compound in the blood resulting from oral absorption. The results of these experiments are shown in Table 3 and document the availability of the compound via the oral route of administration and the dose-dependency of the desired inhibitory effect on serum TXB2.

thromboxane synthase [3] = molecular target: T1, thromboxane synthase (Homo sapiens, UniProt P24557); experiment: Thromboxane Synthase Inhibition (TSI) Assay: serum TXB2 by radioimmunoassay in whole human blood; assay type: cell-based; details: for Serum TXB2: mean ± SE, n = 3, vehicle 375
T1 construct: incubated with fresh whole human blood that had been anticoagulated with 0.38% trisodium citrate; from tissue; host or cells: fresh whole human blood (citrated, recalcified)
T1 sequence (P24557 1-533): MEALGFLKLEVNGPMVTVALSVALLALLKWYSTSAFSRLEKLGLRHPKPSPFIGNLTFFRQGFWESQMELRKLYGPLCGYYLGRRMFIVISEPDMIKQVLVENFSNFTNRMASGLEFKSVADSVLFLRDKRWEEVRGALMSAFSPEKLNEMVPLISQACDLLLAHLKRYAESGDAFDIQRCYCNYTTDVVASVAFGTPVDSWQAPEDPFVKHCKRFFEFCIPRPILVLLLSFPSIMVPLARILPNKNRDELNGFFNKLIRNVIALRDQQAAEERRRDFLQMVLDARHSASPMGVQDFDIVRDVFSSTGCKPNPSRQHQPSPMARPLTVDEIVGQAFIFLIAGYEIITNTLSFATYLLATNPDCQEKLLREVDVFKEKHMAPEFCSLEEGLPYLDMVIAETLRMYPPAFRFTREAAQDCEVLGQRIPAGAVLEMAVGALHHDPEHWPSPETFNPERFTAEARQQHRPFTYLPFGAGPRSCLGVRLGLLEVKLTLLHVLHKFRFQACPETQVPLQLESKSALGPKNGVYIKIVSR
Protocol: The ability of the compound of the present invention to be an effective thromboxane synthase inhibitor were evaluated in the following Thromboxane Synthase Inhibition (TSI) Assay with the results shown in Table 1 below:
Method for Thromboxane Synthase Inhibition (TSI) Test:
as §1

SMILES: O=C(O)CCCCCn1ccc2ccncc21 [Example 1 Part D, 6-azaindole-1-hexanoic acid]
- Serum 6-keto-PGF1a ([1]; 0.01 μM compound): 1.7 ± 0.1 ng/mL
- Serum 6-keto-PGF1a ([1]; 0.1 μM compound): 2.4 ± 0.6 ng/mL
- Serum 6-keto-PGF1a ([1]; 1 μM compound): 2.6 ± 0.7 ng/mL
- Specificity for inhibition of thromboxane synthase versus cyclooxygenase and prostacyclin synthase ([1]; judged from human serum 6-keto-PGF1a levels): specific TSI
- Serum TXB2 (thromboxane synthase [2]; 1 mg/kg p.o.): 85.1 ng/mL
- Serum TXB2 (thromboxane synthase [2]; 10 mg/kg p.o.): 18.4 ng/mL
- Serum TXB2 (thromboxane synthase [3]; 0.01 μM compound): 235 ng/mL
- Serum TXB2 (thromboxane synthase [3]; 0.1 μM compound): 109 ng/mL
- Serum TXB2 (thromboxane synthase [3]; 1 μM compound): 18.8 ng/mL
- IC50 (thromboxane synthase [3]; serum TXB2, mean±SE, n=3, read-out: IC50 (concentration required to reduce thromboxane generation to 50% of vehicle)): 23 ± 4.1 nM
